Entries after “also recorded” stand apart in the source; their conditions may differ.
How the values were obtained:
[1] = tested on: cells (cell cycle phase); assay: Cell cycle phase analysis by flow cytometry after CPT treatment; assay type: cell-based; settings: FIG. 16
Source text: Quantifying the proportion of cells in each phase of a cell cycle, including mitotic phases is widely carried out by flow cytometry using a stoichiometric fluorescent stain for DNA that reports the cells' position within the G1, S and G2 phases of the cell cycle. However, these stains are not compatible with live cell analysis.
(§1) FIGS. 16A, 16D, 16G, and 16J, corresponding to subpanel (a), (d), (g), and (j) are from flow cytometry, while the analogous impedance cytometry plots are in FIGS. 16B, 16C, 16E, 16F, 16H, 16I, 16K, and 16L (corresponding to subpanel (b) and (c), (e) and (f), (h) and (i), and (k) and (l)), respectively.
(§2) As per FIG. 16, indeed, CPT treatment at 5 nM and 10 nM levels increases the proportion of the sum of S and G2 phase cells, which can be detected based on the proportion of cells in the high impedance phase contrast (ϕZ contrast) region.

[2] = tested on: cells (cell cycle phase); assay: Cell cycle phase assessment by impedance cytometry (ϕZ contrast) after CPT treatment; assay type: cell-based; settings: FIG. 16
Source text: FIG. 16 illustrates that the exemplary impedance contrast method and system can be used to detect lineage of cells based on differences of phases of cell cycle in accordance with an illustrative embodiment. That is, differences in electrophysiology between cells in G1 phase versus those with S and G2 phase can be detected using the phase contrast metric that is sensitive to interior conductivity, which can be an indicator of nucleus size (i.e., cell cycle phase/stage).
In FIG. 16, it can be observed that increasing the proportion of cells in the G2 phase increases the proportion of cells in the high impedance phase contrast (ϕZ contrast) region between 5 nM and 10 nM CPT treatment, whereas lowering the proportion of cells in G2 phase by […] CPT treatment lowers the proportion of cells in the high impedance phase contrast (ϕZ contrast) region.
as §1, §2

[3] = tested on: PDXs of mPanc; assay: Impedance phase contrast assessment of drug sensitivity, Gemcitabine-treated PDXs of mPanc; assay type: cell-based, human; settings: standard 2D cell culture plate, over all five days, FIG. 15B
Source text: (§3) In this context, since alterations in subcellular electrophysiology in response to drug-induced apoptosis or autophagy occur earlier in the cell cycle than apparent with staining-based or imaging approaches, the exemplary method and system in using electrophysiology for kinetic monitoring may be used to track differences in stochastic cell sensitivity to various drugs. Additionally, the exemplary electrophysiology method and system require no sample preparation steps for staining or image contrast enhancement, thereby preserving the state of fragile apoptotic cells. […] As a non-limiting example, sensitivity of the electrophysiology of patient-derived pancreatic tumor xenografts (PDXs) to the chemotherapy drug gemcitabine may be used to illustrate the assay. Currently, treatment with folfirinox drug combination is the preferred first-line therapy for pancreatic cancer, but a significant fraction of patients cannot tolerate the overall drug cytotoxicity. […] On the other hand, for Control (untreated) versus Gemcitabine-treated PDXs of mPanc (FIG. 15B), the alterations are only modest over all five days. Indeed, the drug sensitivity determination based on tumor size takes 5 days.

[4] = tested on: PDXs of mPanc; settings: PDX mPanc; cited from earlier work
[5] = tested on: PDXs of 608; assay: Impedance phase contrast assessment of drug sensitivity, Gemcitabine-treated PDXs of 608; assay type: cell-based, human; settings: standard 2D cell culture plate, right from Day 1, more clearly Day 2-5, FIG. 15A
Source text: as §3

[6] = tested on: PDXs of 608; settings: PDX 608; cited from earlier work

Compound	proportion of the sum of S and G2 phase cells ([1]; CPT treatment at 5 nM)	proportion of the sum of S and G2 phase cells ([1]; CPT treatment at 10 nM)	proportion of cells in S phase ([1]; CPT treatment at 100 nM)	proportion of cells in the G2 phase ([1]; CPT treatment at 100 nM)	proportion of cells in the high impedance phase contrast (ϕZ contrast) region ([2]; CPT treatment at 100 nM)	proportion of cells in the high impedance phase contrast (ϕZ contrast) region ([2]; between 5 nM and 10 nM CPT treatment)	impedance phase contrast, Control (untreated) versus Gemcitabine-treated [3]	known sensitivity to gemcitabine [4]	impedance phase contrast, Control (untreated) versus Gemcitabine-treated [5]	known sensitivity to gemcitabine [6]
CC[C@@]1(O)C(=O)OCc2c1cc1n(c2=O)Cc2cc3ccccc3nc2-1 [CPT]	increases	increases	increasing	lowering; also recorded: lowers	lowers; also recorded: substantive decrease	increases	–	–	–	–
Nc1ccn([C@@H]2O[C@H](CO)[C@@H](O)C2(F)F)c(=O)n1 [Gemcitabine, gemcitabine]	–	–	–	–	–	–	only modest	relatively more resistant	statistically significant differences	sensitive
